Data set [1] concerns writhes induced by intraperitoneal acetic acid. Particulars: prior art section; cited from earlier work.
The test system of data set [2] is food consumption by rats. The data set can be described thus: Action on appetite, Anorexia method (liquid food consumption). The settings on record: for Amount of consumed liquid food during 30 min in ml / Food consumption, % of control: dose 0,1 mg/kg intraperitoneally. Format: in vivo. Here is the method: (§1) Studies of pharmacological activity of 3-arylamino-1,3-dihydro-2H-benzo[e][1,4]diazepin-2-ones, namely, their action of appetite, assessment of antihypoxic and antidepressant activity was performed in white male rats with body mass 150-180 g and male mice with body mass 18-22 g. The animals were kept on a standard laboratory diet and natural lighting. Animals of control group were given a water-Tween suspension. Test compounds were administered in a suspension with Tween-80 Reference drugs were the hormone leptin, in 0.0002 mg/kg dose, and a well-known antidepressant amitriptyline (solution for injections in 1 ml vials. Test compounds and the water-Tween suspension were administered in a dose of 0.2 ml/100 g of rat body mass.
The action of the compounds on rat appetite was studied using «norexia» method. For 2 weeks in an experimental equipment the rats were conditioned to consume liquid food. Then a water-Tween suspension of test articles was administered intraperitoneally to conditioned animals one day before the experiment. After 40 minutes the animals were allowed access to liquid food and the amount of consumed food (in ml) of every rat was registered every 30 minutes for 3 hours. The next day after 2 hours of deprivation the rats in control group were administered a water-Tween suspension intraperitoneally, while the test group was administered the test articles. After 40 minutes the animals were allowed access to liquid food and the amount of consumed food (in ml) of every rat was registered every 30 minutes for 3 hours. Then all food consumption values for each rat were summed and compared to control values. The control group has consumed on average 7 ml of liquid food per 30 minutes. The effect was calculated in percentage compared to control.

Data set [3] concerns food consumption by rats. Described as above. Particulars: leptin dose 20 nM. Format: in vivo.
Data set [4] deals with mice in acute confined space hypoxia. The settings on record: reference drug, ref. [14]; cited from earlier work.
The next data set has as its system immobility time of mice. The experiment in a line: Antidepressant activity, Porsolt forced swimming test. Format: in vivo. Here is the method:
as §1
Antidepressant activity was studied using «Porsolt forced swimming test» [15], which models stress in mice by forcing them to swim in a narrow translucent cylinder, filled by ⅓ volume with water at 23-25° C. temperature. Antidepressant action is assessed by the reduction in immobility time, when the animals have minimal amount of paddling, in seconds or percentage compared to control. The animal behavior was registered for 4 minutes after acclimatization for 2 minutes.

In data set [5] the test system is mice in acute confined space hypoxia. The experiment in a line: Antihypoxic activity, acute confined space hypoxia (CSH). In kind it is in vivo. Particulars: 10 mg/kg. Here is the method: as §1
Screening of antihypoxic activity was performed using the model of acute confined space hypoxia (CSH). CSH was modeled by placing mice into isolated sealed chambers (V=200 ml). Each group included 10 animals. The observation lasted until the death of the animals. Antihypoxic effect was assessed by the survival duration (in min) compared to control, which was taken as 100%, and according to the calculation of antihypoxic protection ratio (Rpr):Rpr=Tt/Tc, where Tt—average animal survival time in the test group; Tc—average animal survival time in the control group.

Data set [6] concerns writhes induced by intraperitoneal acetic acid. The experiment in a line: Analgesic activity, acetic acid-induced writhing test (peripheral pain model). Format: in vivo. Here is the method:
Assessment of analgesic activity was performed in a model of peripheral pain based on chemical pain induced by intraperitoneal administration of acetic acid, leading to involuntary contractions of abdominal muscles, termed “writhes”, accompanied by hind leg extension and spine arching. The writhes were induced by 0.75% solution of acetic acid, which was administered intraperitoneally 40 min after intraperitoneal administration of test compounds in 0.001-5 mg/kg dose range. […] Analgesic activity was assessed by the ability of the compounds to reduce the number of writhes in test group compared to control group, and indicated as percentage using the following formula: AA=(Wc−Wt/Wc)×100%,
where AA—analgesic activity in %;
Wc—average number of writhes in control group;
Wt—average number of writhes in test group
Test compounds were studied in comparison with the reference drug sodium diclofenac in 10 mg/kg dose. ED50 was calculated using Prozorovsky method.
For orientation: Writhing tests count abdominal constrictions after an irritant is injected.

The values below come from patent US11358939B2, “1,4-benzodiazepin-2-one derivatives and use thereof” (priority 2017, dated 2022).

For `O=C1Nc2ccc([N+](=O)[O-])cc2C(c2ccccc2)=NC1Nc1ccccc1[N+](=O)[O-]` (stereo not shown), the melting point (commonly the temperature, or range, at which the solid turns liquid) was 225 to 227 °C.

Regarding `CCOC1N=C(c2ccccc2)c2cc(Br)ccc2N(CC(=O)OC)C1=O` (stereo not shown) [methyl-2-(7-bromo-3-etoxy-2-oxo-5-phenyl-2,3-dihydro-1H-benzo[e][1,4]diazepin-1-yl) acetate], the “ED50, analgesic activity in acetic acid-induced writhing test (prior art)” value in data set [1] is 0.47 ± 0.15 mg/kg.

With leptin, the “Reduction in appetite and food consumption compared to control” value in the data set on food consumption by rats [2] (leptin 0.0002 mg/kg) stood at 63%. In the data set on food consumption by rats [3], the “Amount of consumed liquid food during 30 min in ml” value (from here on “Amount”) is listed as 2,5 ± 0,2 ml and the “Food consumption, % of control” value came to 37%. For the same compound, in data set [4], the “Antihypoxic properties” value was “no antihypoxic properties”. Further, in the data set with immobility time of mice (0.0002 mg/kg), the “Reduction of immobility time compared to control” value (from here on “Reduction of immobility time”) is on record as 14%.

In the case of `COC(=O)CN1C(=O)C(Nc2cccc(F)c2)N=C(c2ccccc2)c2cc(Cl)ccc21` (stereo not shown) [Compound 159], the “Reduction of immobility time” value with immobility time of mice (1 mg/kg) worked out at 32%.

As for `O=C1Nc2ccc([N+](=O)[O-])cc2C(c2ccccc2F)=NC1Nc1cccc(Cl)c1` (stereo not shown) [Compound 357], the “Increase of mice survival time during acute confined space hypoxia compared to control” value in data set [5] came to 40.5%. In the data set with food consumption by rats [2], the “Amount” value is on record as 5,9 ± 2,2 ml and the “Food consumption, % of control” value worked out at 80%.

`CCCOC1N=C(c2ccccc2)c2cc([N+](=O)[O-])ccc2N(CC(=O)OC)C1=O` (stereo not shown) [Compound 48, Methyl-2-(7-nitro-2-oxo-5-phenyl-3-propoxy-2,3-dihydro-1H-benzo[e][1,4]di-azepin-1-yl)acetate] registered a melting point of 214 to 215 °C. In addition, in data set [6] (compounds Ia, 1 mg/kg intraperitoneally, 40 min before 0.75% acetic acid), the “Writhing inhibition, % of control in 1 mg/kg dose” value was 85%. For the same compound, the ED50 (usually the midpoint of the dose-response relation) in data set [6] (ip, intraperitoneal, Prozorovsky method) is 0.058 ± 0.015 mg/kg.

As to `O=C1Nc2ccc(OC(F)(F)F)cc2C(c2ccccc2)=NC1Nc1ccccc1Cl` (stereo not shown) [Compound 194], the “Reduction in appetite and food consumption compared to control” value with food consumption by rats [2] (Table 6 dose 0,1 mg/kg) amounted to 47%. In the data set with food consumption by rats [2], the “Amount” value is reported as 3,5 ± 2,3 ml and the “Food consumption, % of control” value is 47%. Also, the “Reduction of immobility time” value in the data set with immobility time of mice (1 mg/kg) was 40%.

On to `O=C1Nc2ccc([N+](=O)[O-])cc2C(c2ccccc2)=NC1Nc1ccc(Cl)cc1` (stereo not shown) [Compound 250], for which the “Increase of mice survival time during acute confined space hypoxia compared to control” value in data set [5] was 70%. For the same compound, in the data set on food consumption by rats [2], the “Amount” value is 6,3 ± 3,2 ml and the “Food consumption, % of control” value is 85%.

Take `CN(C)CCC=C1c2ccccc2CCc2ccccc21` [amitriptyline, reference compound]: the “Reduction of immobility time” value in the data set with immobility time of mice (1 mg/kg) was 40%.
